The results in this text go back to article PMC8355244, “A fragment-based approach identifies an allosteric pocket that impacts malate dehydrogenase activity” (Communications Biology, 2021).

Where two headings read alike, the source gives them in different places.

The assay deals with T1, WT PfMDH (Plasmodium falciparum, UniProt Q6VVP7).
T1 construct: The full-length WT PfMDH gene was cloned into pETM-13; made in house; host or cells: E. coli Rosetta 2 (DE3) pLysS
The experiment in a line: Activity screening of 4DT / 4-phenylthiazol-2-amine derivatives (oxidation of malate, absorbance at 340 nm). The following applies: for inhibition at 500 µM: Dunnett's multiple comparisons test, read-out: Mean Diff. (positive control vs. compound); for Slope repl1 / Slope repl2: linear regression slope of absorbance 340 nm vs time; for Slope normalized repl1: slope relative to control = 1, replicate 1; for Slope normalized repl2: slope relative to control = 1, replicate 2. The format is biochemical. The method, then: The oxidation of malate to oxaloacetate was assayed spectrophotometrically in flat-bottomed Corning 96-well microplates in a total volume of 250.0 µl in 50 mM glycine buffer pH 10.2[24] with an additional 400 mM NaCl for protein stability. The increase of absorbance at 340 nm was recorded in kinetic mode using a Tecan Spark multimode microplate reader at 298 K. A mastermix of 50 mM NAD+ and 44 μM PfMDH was used for both the screening and kinetics experiments. The final concentration of protein and cofactor were […], respectively. Positive control groups were set (absence of compound) in the same plate as the treated group. The absorbance from the background noise was subtracted from the data and then a linear regression model was employed in order to get the line slope from the first 5 min of the reaction. The percentage of enzymatic activity has been calculated as described by Eq. (1)1 enzymeactivity(%)=slopetreated/slopepositivecontrol*100
1.3 µL of derivatives of 4-phenylthiazol-2-amine in 100% DMSO were mixed with 237.7 µL of a mastermix of WT PfMDH previously incubated with NAD+. The final compound concentration used in this screening was 500 µM in the presence of 0.5% (v/v) DMSO. The microplate was sealed with silver foil for 1-h incubation at 25–35 °C. Finally, reactions in both the samples and control wells were started upon the addition of 13.0 µL of 5 mM malate). At the end of the experiments, the reaction of the plate was spectrophotometrically assayed at 600 nm in order to identify turbidity due to the low solubility of the compound. All measurements were performed in duplicate.

Setting [1] is: 500 µM compound, Dunnett test details, positive control mean 100, n 2, read-out: Mean 2 (mean % enzymatic activity of treated group).
The mark [2] stands for this setting: 500 µM compound, control 100%, replicate 1, read-out: % enzymatic activity repl1.
Setting [3] is: 500 µM compound, control 100%, replicate 2, read-out: % enzymatic activity repl2.

T1 sequence (Q6VVP7 entry or part of it): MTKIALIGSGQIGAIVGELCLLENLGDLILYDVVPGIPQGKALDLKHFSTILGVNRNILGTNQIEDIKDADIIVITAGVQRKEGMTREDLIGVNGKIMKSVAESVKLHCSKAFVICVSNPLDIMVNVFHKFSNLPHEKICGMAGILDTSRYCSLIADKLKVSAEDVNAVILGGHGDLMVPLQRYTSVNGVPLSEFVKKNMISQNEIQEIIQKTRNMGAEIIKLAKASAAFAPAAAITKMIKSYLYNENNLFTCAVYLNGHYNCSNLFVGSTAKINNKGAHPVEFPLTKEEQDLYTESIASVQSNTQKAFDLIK

`Nc1nc(-c2ccc(F)c(F)c2)cs1` [1a]: the remaining activity at 500 µM came out at 62% under setting [1], 64% under setting [2], 59% under setting [3] and 62% (read-out: enzyme activity). In addition, the inhibition at 500 µM (500 µM compound) stood at 38.5%. Further, the “Slope repl1” value (500 µM compound, replicate 1) was determined as 0.02136. The “Slope repl2” value (500 µM compound, replicate 2) came to 0.02071. For the same molecule, the “Slope normalized repl1” value (500 µM compound) is 0.6412. The “Slope normalized repl2” value (500 µM compound) was 0.591.
Take `NCc1ccc(-c2csnn2)cc1` [2b]: the remaining activity at 500 µM reads like this: under setting [1], 65%; under setting [2], 83%; under setting [3], 47%; (read-out: enzyme activity) 65%. Moreover, the inhibition at 500 µM (500 µM compound) came to 35%. Also, under “500 µM compound, replicate 1”, the “Slope repl1” value is 0.02772. In addition, the “Slope repl2” value (500 µM compound, replicate 2) worked out at 0.01654. Also, for the setting “500 µM compound”, the “Slope normalized repl1” value is on record as 0.8322. In addition, the “Slope normalized repl2” value (500 µM compound) was determined as 0.472.
Turning to `O=C(O)c1nc(-c2ccccc2)cs1` [4a], the remaining activity at 500 µM is, setting by setting: under setting [1], 65%; under setting [2], 64%; under setting [3], 66%; (read-out: enzyme activity) 65%. For the same molecule, the inhibition at 500 µM (500 µM compound) turned out to be 35%. For the same molecule, the “Slope repl1” value (500 µM compound, replicate 1) amounted to 0.02124. For the same molecule, the “Slope repl2” value (500 µM compound, replicate 2) was 0.02324. In addition, for the setting “500 µM compound”, the “Slope normalized repl1” value is 0.6376. Further, the “Slope normalized repl2” value (500 µM compound) was found to be 0.6632.
As for `CC(C)(C)OC(=O)CNC(=O)c1cc(-c2cccs2)on1` [4b], the remaining activity at 500 µM is 21% under setting [1], 22% under setting [2], 19% under setting [3] and 20% (read-out: enzyme activity). The inhibition at 500 µM (500 µM compound) came to 79.5%. In addition, the “Slope repl1” value (500 µM compound, replicate 1) was 0.007266. The “Slope repl2” value (500 µM compound, replicate 2) came out at 0.006583. For the same molecule, under “500 µM compound”, the “Slope normalized repl1” value turned out to be 0.2181. In addition, for the setting “500 µM compound”, the “Slope normalized repl2” value is recorded as 0.1879.
On to `Nc1cc(-c2ccccc2)[nH]n1` [5b], for which the remaining activity at 500 µM worked out at 53% under setting [1], 63% under setting [2], 42% under setting [3] and 53% (read-out: enzyme activity). In addition, the inhibition at 500 µM (500 µM compound) came to 47.5%. Further, the “Slope repl1” value (500 µM compound, replicate 1) was found to be 0.02092. In addition, the “Slope repl2” value (500 µM compound, replicate 2) is given as 0.01483. For the same molecule, the “Slope normalized repl1” value (500 µM compound) was 0.628. Also, the “Slope normalized repl2” value (500 µM compound) is on record as 0.4232.
With `Nc1nc(-c2ccc(Cl)c(Cl)c2)cs1` [7a], the remaining activity at 500 µM under setting [1] is 24%, the remaining activity at 500 µM under setting [2] came out at 26%, the remaining activity at 500 µM under setting [3] was found to be 21% and the remaining activity at 500 µM (read-out: enzyme activity) was 23%. Moreover, the inhibition at 500 µM (500 µM compound) was 76.5%. For the same molecule, under “500 µM compound, replicate 1”, the “Slope repl1” value was 0.008711. In addition, the “Slope repl2” value (500 µM compound, replicate 2) turned out to be 0.007289. For the same molecule, the “Slope normalized repl1” value (500 µM compound) is 0.2615. Moreover, the “Slope normalized repl2” value (500 µM compound) is listed as 0.208.
For `O=C(O)c1cc(-c2cccs2)on1` [compound 1b], the remaining activity at 500 µM under setting [1] stood at 60%, the remaining activity at 500 µM under setting [2] turned out to be 65%, the remaining activity at 500 µM under setting [3] worked out at 54% and the remaining activity at 500 µM (read-out: enzyme activity) came out at 60%. Under “500 µM compound”, the inhibition at 500 µM amounted to 40.5%. Besides, the “Slope repl1” value (500 µM compound, replicate 1) turned out to be 0.0217. In addition, the “Slope repl2” value (500 µM compound, replicate 2) was found to be 0.019. The “Slope normalized repl1” value (500 µM compound) is on record as 0.6515. In addition, the “Slope normalized repl2” value (500 µM compound) was determined as 0.5422.
Consider `Cc1c(CO)cnn1-c1ccccc1` [compound 6b], for which the enzyme activity result (500 µM compound, 0.5% DMSO, vs control, mean of n = 2) is recorded as “no statistical difference with the control”. Under setting [1], the remaining activity at 500 µM was determined as 80%. Further, for the setting “500 µM compound”, the inhibition at 500 µM came to 20%, the “Slope normalized repl1” value came out at 0.7992 and the “Slope normalized repl2” value was determined as 0.7957. Under setting [2], the remaining activity at 500 µM worked out at 80%. The remaining activity at 500 µM under setting [3] was 80%. For the setting “500 µM compound, replicate 1”, the “Slope repl1” value was 0.02662. In addition, the “Slope repl2” value (500 µM compound, replicate 2) came to 0.02788.
With `Nc1nc(-c2ccc(F)cc2)cs1` [compound 9a], the remaining activity at 500 µM under setting [1] came to 51%, the remaining activity at 500 µM under setting [2] came out at 57%, the remaining activity at 500 µM under setting [3] amounted to 45% and the remaining activity at 500 µM (read-out: enzyme activity) turned out to be 51%. Moreover, the inhibition at 500 µM (500 µM compound) worked out at 49%. The “Slope repl1” value (500 µM compound, replicate 1) turned out to be 0.01901. Besides, for the setting “500 µM compound, replicate 2”, the “Slope repl2” value was found to be 0.01582. The “Slope normalized repl1” value (500 µM compound) was found to be 0.5707. Also, the “Slope normalized repl2” value (500 µM compound) worked out at 0.4515.
